Assay results reported in patent US4975418A, “Therapeutically active compositions of pseudo-peptide of glutamyl-aspartic acid” (Centre National de la Recherche Scientific (CNRS), priority 1986, dated 1990).

System: SWISS mouse
Experiment: convulsive crises induced by intraperitoneal pentylenetetrazole in the SWISS mouse
Format: in vivo
Conditions: given after pentylenetetrazole about 85 mg/kg i.p.
Method: During the first stages of the preparation and development of epileptic drugs it is necessary to generate experimental convulsive crises in an animal. The experimental convulsive crises make it possible to identify anticonvulsants, the anti-epileptic properties of which will be subsequently verified.
That is the reason why convulsive crises are induced in the SWISS mouse by the intraperitoneal injection of pentylenetetrazole at a dose of about 85 mg/kg.
Pentylenetetrazole is a bulbar excitant which, at this dose, causes convulsive crises in the mouse and the rabbit in a classical fashion with several well-characterized stages.
The subsequent intraperitoneal administration of the substance of formula I according to the invention brought about a suppression of these crises under the following conditions:
The subsequent intraperitoneal administration of N-γ-D-glutamyl-D-aspartic was also carried out and brought about the suppression of crises under the following conditions: […]

[1] = dose 285 nmol/kg intraperitoneal

`N[C@H](CCC(=O)N[C@H](CC(=O)O)C(=O)O)C(=O)O` [N-γ-D-glutamyl-D-aspartic, N-γ-D-glutamyl-D-aspartic acid] was tested, and the “suppression of crises, % of the animals” value (dose 71 nmol/kg intraperitoneal) was 40% and the “suppression of crises, % of the animals” value [1] was 60%.
`N[C@@H](CCC(=O)N[C@@H](CC(=O)O)C(=O)O)C(=O)O` [formula I, N-γ-L-glutamyl-L-aspartate] was tested, and the “suppression of crises, % of the animals” value (dose 142.5 nmol/kg intraperitoneal) was 50%, the “suppression of crises, % of the animals” value [1] was 50% and the “suppression of crises, % of the animals” value (dose 570 nmol/kg intraperitoneal) was 70%.
